Data from patent publication US20260308179A1, “NOVEL CRYSTALLINE FORM OF RISDIPLAM AND PROCESS FOR PREPARATION THEREOF” (HARMAN FINOCHEM LIMITED, priority 2023, published 2026).
In brackets after ≈: the same amount, converted by molar mass. Like-named read-outs stand apart in the source and are kept apart here.

What was measured:
[1] = Risdiplam solubility data; assay type: physicochemical
[2] = Storage stability of crystalline Form H by IR spectrum; assay type: physicochemical
Protocol: In yet another aspect, the crystalline Form H of Risdiplam is characterized by the IR spectrum at 834 cm^−1, 880 cm^−1, 926 cm^−1, 1210 cm^−1, 1227 cm^−1, 1674 cm^−1, 2824 cm^−1, 3283 cm^−1; as illustrated in FIGS. 2A and 2B. The IR spectrum of Risdiplam Form H was conducted after 6 months of storage.
In yet another embodiment, the crystalline Form H of Risdiplam is characterized by the IR spectrum at 834 cm^−1, 880 cm^−1, 926 cm^−1, 1210 cm^−1, 1227 cm^−1, 1674 cm^−1, 2824 cm^−1, 3283 cm^−1 as illustrated in FIGS. 2A and 2B. The IR spectrum of Risdiplam Form H illustrated in FIG. 2B was conducted after 6 months of storage.

SMILES: Cc1cn2nc(-c3cc(=O)n4cc(N5CCNC6(CC6)C5)ccc4n3)cc(C)c2n1 [STD]
- Solubility in ethanol ([1]; solvent: ethanol): <1000 µg/mL
- Solubility in water ([1]; solvent: water): <100 µg/mL

SMILES: Cc1cn2nc(-c3cc(=O)n4cc(N5CCNC6(CC6)C5)ccc4n3)cc(C)c2n1 [011/DS-C/V/118/032, 7-(4,7-Diazaspiro[2,5]octan-7-yl)-2-(2,8-dimethylimidazo[1,2-b]pyridazin-6-yl)-pyrido[1,2-a]pyrimidin-4-one]
- solubility ([1]; ethanol, organic solvent or mixture, solvent: ethanol, read-out: Solubility in ethanol): 1300 µg/mL (≈ 3240 µM)
- solubility ([1]; water, solvent: water, read-out: Solubility in water): 3 µg/mL (≈ 7.47 µM)

SMILES: Cc1cn2nc(-c3cc(=O)n4cc(N5CCNC6(CC6)C5)ccc4n3)cc(C)c2n1 [crystalline Form H of Risdiplam, 7-(4,7-diazaspiro[2.5]octan-7-yl)-2-(2,8-dimethylimidazo[1,2-b]pyridazin-6-yl)pyrido-4H-[1,2-a]pyrimidin-4-one]
- Solubility in ethanol ([1]; solvent: ethanol, listed as 011/DS-C/IV/118/048): 1400 µg/mL (≈ 3490 µM)
- Solubility in water ([1]; solvent: water, listed as 011/DS-C/IV/118/048): 6 µg/mL (≈ 14.9 µM)
- change in the IR spectrum after storage (stability) ([2]; after 6 months of storage, IR spectrum, FIG. 2A and 2B): No substantial change in the IR spectrum was observed
- stability period ([2]; illustrated by IR spectrum in FIG. 2): stable up to a period of 6 months
